Reference: ChEMBL document CHEMBL1121720, “Future directions in dopaminergic nervous system and dopaminergic agonists” (J Med Chem, 1981)

Target: T1, Renin (Rattus norvegicus) (UniProt P08424)
T1 sequence (whole entry): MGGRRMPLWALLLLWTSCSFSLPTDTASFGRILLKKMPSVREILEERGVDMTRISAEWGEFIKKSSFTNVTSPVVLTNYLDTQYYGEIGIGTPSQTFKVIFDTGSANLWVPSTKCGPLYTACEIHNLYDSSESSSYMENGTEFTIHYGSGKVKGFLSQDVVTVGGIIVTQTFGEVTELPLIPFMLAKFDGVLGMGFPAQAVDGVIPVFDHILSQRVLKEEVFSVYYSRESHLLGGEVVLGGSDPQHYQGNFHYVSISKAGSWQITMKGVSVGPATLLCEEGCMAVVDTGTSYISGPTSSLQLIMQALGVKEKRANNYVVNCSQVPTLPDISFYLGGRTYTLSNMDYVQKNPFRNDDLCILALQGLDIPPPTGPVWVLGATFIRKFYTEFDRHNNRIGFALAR
Experiment: Compound was evaluated for its ability to reduce plasma renin activity; Ranges is 20-40
Assay type: functional, cell-free
Set-up: scale not given: the % may be the effect or the level left

CC(C)C[C@H]1C(=O)N2CCCC2[C@]2(C)O[C@](NC(=O)C3C=C4c5cccc6[nH]c(Br)c(c56)C[C@H]4N(C)C3)(C(C)C)C(=O)N12 (stereo partly specified)
Activity: 20%
